For one molecule, IC50 results are on record in BindingDB's records for doi:10.1021/jm960248s (Smithkline Beecham Pharmaceuticals, 1996).

Usually IC50 stands for the concentration that gives 50% inhibition. Lower therefore signals greater potency in that assay.

The target in the experiment is fMet-Leu-Phe receptor (Homo sapiens) (UniProt P21462). As to the kind of experiment: Inhibitory concentration against fMLP receptor with [3H]- fMLP in receptor binding assay.

The structures appear in SMILES notation.

Sequence of fMet-Leu-Phe receptor (Homo sapiens) (P21462 whole entry, looked up): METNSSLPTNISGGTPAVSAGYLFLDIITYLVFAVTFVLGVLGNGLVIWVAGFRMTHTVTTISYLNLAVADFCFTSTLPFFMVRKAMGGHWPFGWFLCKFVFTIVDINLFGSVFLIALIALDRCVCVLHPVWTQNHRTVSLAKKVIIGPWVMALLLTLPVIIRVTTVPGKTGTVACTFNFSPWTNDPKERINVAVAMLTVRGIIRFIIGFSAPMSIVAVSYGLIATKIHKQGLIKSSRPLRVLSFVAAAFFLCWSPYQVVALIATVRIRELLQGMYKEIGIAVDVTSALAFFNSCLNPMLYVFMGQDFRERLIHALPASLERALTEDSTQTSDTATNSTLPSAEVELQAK

As to `O=C(O)/C=C/c1nc(CSc2c(Cl)cccc2Cl)ccc1OCCc1ccccc1` [Ticolubant], the IC50 was determined as 3.25 µM.
